Test results taken from patent US20230159916A1, “METHODS OF FUNCTIONAL LINKAGE OF CHROMOSOMAL POSITIONS” (ARPEGGIO BIOSCIENCES, INC., priority 2020, published 2023).

What was measured:
HMOX1 [1] = experiment: RT-qPCR of HMOX1 expression in A673 cells; assay type: cell-based; settings: A673, 1 μM, four hours
Experimental: (§1) To confirm HMOX1 induction by the GPX4 inhibitors, an RT-qPCR assay was performed using three ferroptosis sensitive cancer cell lines: the fibrosarcoma cell line HT-1080, a Ewing's sarcoma cell line A673, and a renal clear cell carcinoma cell line 786-O. Briefly, cells were exposed to 1 μM ML162 or 1 μM RSL3 for 4 hours, RNA was isolated and an RT-qPCR assay was performed.
(§2) Briefly, HT-1080, A673, and 786-O cells were exposed to 1 μM ML162 or 1 μM RLS3 with or without 1 μM ferrostatin-1 for four hours, RNA was isolated and an RT-qPCR assay was performed to quantify HMOX1 expression. DMSO was used as a control exposure.

HMOX1 [2] = experiment: nascent RNA sequencing of HT-1080 cells exposed to GPX4 inhibitors; assay type: cell-based; settings: HT-1080, 1 μM, 1 hour, Pval<10^−2
Experimental: (§3) To assess the transcriptional response of a cell to inhibition of GPX4, we exposed two cell lines to two different chemical inhibitors of GPX4 (ML162 and RSL3; available from Sigma Aldrich and Apex Bio respectively) and examined the transcriptional responses using a nascent RNA sequencing protocol. Briefly, a fibrosarcoma cell line HT-1080 and a lung fibroblast cell line IMR90 were exposed to 1 μM ML162 or 1 μM RSL3 for 1 hour and the nascent RNA sequencing protocol was performed.

HMOX1 [3] = experiment: RT-qPCR of HMOX1 expression in 786-O cells; assay type: cell-based; settings: 1 μM, four hours
Experimental: as §1, §2

HMOX1 [4] = experiment: RT-qPCR of HMOX1 expression in HT-1080 cells; assay type: cell-based; settings: for expression of HMOX1 relative to ACTB, absence of ferrostatin-1: HT-1080, 1 μM, four hours; for effect of ferrostatin-1 on the substance's induction of HMOX1: HT-1080, sodium arsenite 80 μM, hemin 5 μM, RSL3 1 μM, with or without 1 μM ferrostatin-1, four hours, normalized to DMSO
Experimental: as §1
To further validate induction of HMOX1 mRNA expression by GPX4 inhibition, RT-qPCR was performed using varying doses of the RSL3 inhibitor. Briefly, HT-1080 cells were exposed to 5 μM RSL3, 1 μM RSL3, and 0.2 μM RSL3 for four hours, RNA was isolated and an RT-qPCR assay was performed to quantify HMOX1 expression. DMSO was used as a control exposure.
as §2
Sodium arsenite and hemin are known to be inducers of general oxidative stress in cells. Briefly, HT-1080 cells were exposed to sodium arsenite (80 μM), hemin (5 μM), ML162 (1 μM), or RSL3 (1 μM) with or without 1 μM ferrostatin-1 for four hours, RNA was isolated and an RT-qPCR assay was performed to quantify HMOX1 expression. DMSO was used as a control exposure.

HMOX1 [5] = experiment: nascent RNA sequencing of IMR90 cells exposed to GPX4 inhibitors; assay type: cell-based; settings: IMR90, 1 μM, 1 hour, Pval 10^−3
Experimental: as §3

HMOX1 [6] = experiment: RT-qPCR of HMOX1, ferrostatin-1 rescue of GPX4 inhibitor-mediated induction in HT-1080, A673 and 786-O cells; assay type: cell-based; settings: HT-1080, A673, 786-O; 1 μM ferrostatin-1 with 1 μM ML162 or RSL3, four hours
Experimental: as §2

[7] = tested on: HT-1080, A673, and 786-O cells lines; settings: ferrostatin-1 added to the culture media; HT-1080, A673, 786-O; cited from earlier work

Compound	expression of HMOX1 relative to ACTB, absence of ferrostatin-1 (HMOX1 [1])	differential expression of HMOX1 (nascent RNA sequencing) (HMOX1 [2])	expression of HMOX1 relative to ACTB, absence of ferrostatin-1 (HMOX1 [3])	expression of HMOX1 relative to ACTB, absence of ferrostatin-1 (HMOX1 [4])	differential expression of HMOX1 (nascent RNA sequencing) (HMOX1 [5])	effect of ferrostatin-1 on the substance's induction of HMOX1 (HMOX1 [4])	further results
COc1ccc(N(C(=O)CCl)C(C(=O)NCCc2ccccc2)c2cccs2)cc1Cl (centres unmarked) [ML162]	HMOX1 expression was observed in all three cell lines	strongly differentially expressed	HMOX1 expression was observed in all three cell lines	HMOX1 expression was observed in all three cell lines	strongly differentially expressed		expression of HMOX1 relative to ACTB, presence of ferrostatin-1 (HMOX1 [4]; HT-1080, 1 μM inhibitor with 1 μM ferrostatin-1, four hours): induced HMOX1 even in the presence of ferrostatin-1
COC(=O)c1ccc([C@@H]2c3[nH]c4ccccc4c3C[C@@H](C(=O)OC)N2C(=O)CCl)cc1 [RSL3]	HMOX1 expression was observed in all three cell lines	strongly differentially expressed	HMOX1 expression was observed in all three cell lines	HMOX1 expression was observed in all three cell lines	strongly differentially expressed	dependent on lipid peroxidation	dose dependence of HMOX1 expression relative to ACTB (HMOX1 [4]; HT-1080, 5 μM, 1 μM and 0.2 μM RSL3, four hours): proportional to the dose
CCOC(=O)c1ccc(NC2CCCCC2)c(N)c1 [ferrostatin-1]							effect of ferrostatin-1 on induction of HMOX1 by RSL3 and ML162 (HMOX1 [6]): sufficient to prevent induction of HMOX1 in most conditions; cellular viability of cells treated with small molecules that induce lipid peroxidation (e.g., GPX4 inhibitors) [7]: rescues cellular viability
O=[As]O [sodium arsenite]						not affected by the presence of ferrostatin-1	
hemin						not affected by the presence of ferrostatin-1	
